Laboratory results as given in paper PMC5541792, “Simultaneous Determination of 11 Compounds in Gualou Guizhi Granule and Pharmacokinetics Study by UPLC-MS/MS” (Journal of Analytical Methods in Chemistry, 2017).

Columns and labels:
[1] = Pharmacokinetic study in rats after oral administration of GLGZG (UPLC-MS/MS of plasma); type: in vivo, rat; settings: for Plasma concentration-time behaviour (in words): rat plasma after oral GLGZG; for AUC(0–∞) / Tmax / MRT inf / half-life / Vd/F: rat plasma, male SD rats, oral GLGZG 3.6 g·(kg·day)^−1, n = 6; for MRT inf: read-out: MRT(0–∞) (converted); for half-life: read-out: T 1/2z; for Vd/F: read-out: Vz/F
Description: Chromatographic separation was performed on an Waters CORTECS C18 (2.1 × 100 mm, 1.6 μm) with the column temperature at 45°C. The mobile phase was composed of 0.1% formic acid in water (A) and acetonitrile (B) with a gradient program (0–0.5 min from 8% to 10% B; 0.5–2.5 min from 10% to 15% B; 2.5–4.0 min from 15% to 60% B; 4.0–5.0 min from 60% to 95% B; 5.0–6.5 min 95% B). The flow rate was 0.25 mL/min and the injection volume was 1 μL.
Mass spectrometry was operated using a Waters (Milford, MA) Xevo TQMS with an electrospray ion source (ESI) in the negative ion multiple reaction monitoring (MRM) mode. The other detailed MS parameters were as follows: drying gas: N2 (purity of 99.9%), 15 L/min, nebulizing gas: 50 L/min, capillary voltage: 2.5 kv.
Plasma samples (100 μL of plasma) and IS working solutions (10 μL of swertiamarin, kaempferol-3-O-rutinoside, and ginsenoside Rb1) were combined and briefly vortex-mixed for 3 min followed by the addition of 4-fold acetonitrile. Then the mixture was centrifuged at 12000 rpm for 10 min. The supernatant was transferred to a clean tube and concentrated up to dryness; the residue was dissolved in 100 μL 50% methanol. Finally, 1 μL aliquot was injected into UPLC-MS/MS system for analysis.
Six male SD rats, weighing 250 ± 20 g, were provided by Experimental Animal Research Center of Fujian TCM University (Fuzhou, China). And they were housed at controlled environmental conditions (temperature: 23 ± 2°C, relative humidity: 55 ± 10%) with free access to standard laboratory food and water. The rats were fasted for 12 h but with access to water before being given GLGZG (3.6 g·(kg·day)^−1). Blood samples of 0.3 mL were collected in heparin containing tubes from epicanthic veins of rats by capillary tube before dose (0 h) and at 5 min, 10 min, 20 min, 0.5 h, 1 h, 1.5 h, 2 h, 3 h, 6 h, 9 h, and 12 h. Then they were centrifuged at 12000 rpm for 10 min. The supernatant liquor was collected and frozen at −20°C until use.
The validated UPLC-MS/MS method was successfully applied to the PK studies of eleven analytes following oral administration of GLGZG to individual male rats (n = 6). The main pharmacokinetic parameters were summarized in Table 8 and the mean plasma concentration-time profiles of the eleven analytes were illustrated in Figure 3.

[2] = Stability of analytes in rat plasma samples (method validation); type: in vitro ADME; settings: n = 6; for Autosampler stability (24 h) Mean: 4°C for 24 h; for Stability (24 h at room temperature) Mean: 25°C for 24 h; for Freeze-thaw stability (3 cycles) Mean: three freeze-thaw cycles at −80°C
Description: Stability of the analytes from plasma samples was performed by determining three different concentrations (low, middle, and high samples) in six replicates under different conditions. It included short-term stability which was assessed by keeping samples at room temperature (25°C) for 24 h, stability which was measured using samples stored at 4°C for 24 h, and freeze-thaw stability that was determined after three freeze-thaw cycles at −80°C.

[3] = middle QC nominal concentration

Row | AUC(0–∞) [1] [mg·L/min] | Tmax [1] [h] | MRT inf [1] [h] | half-life [1] [h] | Vd/F [1] [L/kg] | Autosampler stability (24 h) Mean ([2]; low QC nominal concentration) [%] | Autosampler stability (24 h) Mean [2, 3] [%] | Stability (24 h at room temperature) Mean ([2]; high QC nominal concentration) [%] | Stability (24 h at room temperature) Mean ([2]; low QC nominal concentration) [%] | Stability (24 h at room temperature) Mean [2, 3] [%] | Freeze-thaw stability (3 cycles) Mean ([2]; high QC nominal concentration) [%] | Freeze-thaw stability (3 cycles) Mean ([2]; low QC nominal concentration) [%] | Freeze-thaw stability (3 cycles) Mean [2, 3] [%] | Autosampler stability (24 h) Mean ([2]; high QC nominal concentration) [%] | SMILES | Plasma concentration-time behaviour (in words) [1]
1 | 1262.61 ± 158.73 | 0.9 | 4.4 | 2.86 ± 0.561 | 3.92 ± 1.44 | 97.71 | 92.82 | 94.94 | 96.05 | 92.18 | 98.20 | 98.31 | 108.78 | – | CC1(C)[C@@H](O[C@H]2O[C@H](C(=O)O)[C@@H](O)[C@H](O)[C@H]2O[C@@H]2O[C@H](C(=O)O)[C@@H](O)[C@H](O)[C@H]2O)CC[C@]2(C)[C@H]3C(=O)C=C4[C@@H]5C[C@@](C)(C(=O)O)CC[C@]5(C)CC[C@@]4(C)[C@]3(C)CC[C@@H]12 [Glycyrrhizic acid, glycyrrhizic acid] | double-peak phenomenon
2 | 1263.37 ± 306.91 | 1 | 3.59 | 2.13 ± 0.596 | 2.67 ± 0.87 | 97.93 | 111.49 | 108.45 | 94.78 | 93.66 | 98.89 | 99.77 | 108.14 | 107.72 | CC12CC(O)C3CC1(OC1OC(CO)C(O)C(O)C1O)C3(COC(=O)c1ccccc1)C(=O)O2 (stereo not drawn) [Albiflorin, albiflorin] | –
3 | 20.38 ± 4.30 | 0.445 | 4.92 | 3.87 ± 0.477 | 341 ± 73.6 | 98.45 | 93.53 | 97.03 | – | – | – | – | – | 97.16 | O=C1C[C@@H](c2ccc(O)cc2)Oc2cc(O)ccc21 [Liquiritigenin, liquiritigenin] | –
4 | 904.73 ± 317.76 | 1.33 | 3.93 | 2.38 ± 0.502 | 6.31 ± 1.63 | 103.46 | 98.29 | 109.75 | 105.66 | 91.25 | – | 97.71 | 92.82 | 113.81 | C[C@@]12C[C@@]3(O)O[C@@H](O1)[C@]1(COC(=O)c4ccccc4)[C@H]3C[C@@]12O[C@@H]1O[C@H](CO)[C@@H](O)[C@H](O)[C@H]1O [Paeoniflorin, paeoniflorin] | –
5 | 54.87 ± 14.40 | – | 5.93 | 5.16 ± 1.11 | 167 ± 35.9 | – | 92.30 | 106.73 | 95.70 | – | 97.91 | 101.75 | 109.75 | 90.84 | O=C1C[C@@H](c2ccc(O[C@@H]3O[C@H](CO)[C@@H](O)[C@H](O)[C@H]3O)cc2)Oc2cc(O)ccc21 [Liquiritin, liquiritin] | –

Row | SMILES | AUC(0–∞) [1] [mg·L/min] | Tmax [1] [h] | MRT inf [1] [h] | half-life [1] [h] | Vd/F [1] [L/kg] | Autosampler stability (24 h) Mean ([2]; low QC nominal concentration) [%] | Autosampler stability (24 h) Mean [2, 3] [%] | Stability (24 h at room temperature) Mean ([2]; high QC nominal concentration) [%] | Stability (24 h at room temperature) Mean ([2]; low QC nominal concentration) [%] | Stability (24 h at room temperature) Mean [2, 3] [%] | Freeze-thaw stability (3 cycles) Mean ([2]; high QC nominal concentration) [%] | Freeze-thaw stability (3 cycles) Mean ([2]; low QC nominal concentration) [%] | Freeze-thaw stability (3 cycles) Mean [2, 3] [%] | Autosampler stability (24 h) Mean ([2]; high QC nominal concentration) [%] | Plasma concentration-time behaviour (in words) [1]
6 | CC1(C)[C@@H](O)CC[C@]2(C)[C@H]3C(=O)C=C4[C@@H]5C[C@@](C)(C(=O)O)CC[C@]5(C)CC[C@@]4(C)[C@]3(C)CC[C@@H]12 [Glycyrrhetinic acid, glycyrrhetinic acid] | 2041.10 ± 706.58 | 10 | 11.8 | 2.2 ± 0.472 | – | – | – | – | – | – | – | – | – | – | –
7 | O=C(/C=C/c1ccc(O)cc1)c1ccc(O)cc1O [Isoliquiritigenin, isoliquiritigenin] | 8.52 ± 0.98 | 0.5 | 4.76 | 3.4 ± 0.675 | 700 ± 187 | 106.19 | 91.71 | – | 99.77 | 93.66 | 109.21 | 99.28 | 107.70 | 108.30 | low in the blood
8 | O=C(/C=C/c1ccc(O[C@@H]2O[C@H](CO)[C@@H](O)[C@H](O)[C@H]2O)cc1)c1ccc(O)cc1O [Isoliquiritin, isoliquiritin] | 27.17 ± 2.69 | 0.472 | 5.66 | 4.6 ± 0.866 | 297 ± 70 | – | 97.14 | – | – | 99.28 | 108.88 | 98.98 | 94.03 | 95.62 | –
